Patent US9624280B2 (JANSSEN BIOTECH, INC., priority 2013, dated 2017)
Entries after “also recorded” stand apart in the source; their conditions may differ. Read-outs that look alike come from different tables or passages of the source. No end group written: not given here.

Tests used:
human Nav1.6 = target: T1, human Nav1.6 (Homo sapiens, UniProt Q9UQD0); assay type: cell-based
T1 construct: expressed in transfected cells

human Nav1.5 = human Nav1.5 (Homo sapiens, UniProt Q14524)
rodent = conditions: Schmalhofer et al. 2008; cited from earlier work
isolated nerves = conditions: unless the perineural barrier is compromised; Hackel et al. 2012; cited from earlier work
C57Bl/6 mice [1] = experiment: Hotplate test; assay type: in vivo
Experimental: (§1) Male C57Bl/6 mice (24-26 g), ordered from Charles River and housed individually, were used for this study.
Animals were placed on a 10″×10″ metal plate surrounded by 4 Plexiglas walls (15 inches high). The plate was maintained at a temperature of either 50 or 55° C. The response latency (time when the animal first flinches or licks its hind paw, jumps, or vocalizes) was measured and the animal removed from the plate. Animals showing no response were removed from the plate after 40 s (50° C.) or 20 s (55° C.) to prevent any possible tissue damage. This trial was repeated 2-5 times every 15-60 minutes in a day.
(§2) Alzet micro-osmotic mini pumps (Durect Corporation Model 1003D and 2001D) were filled and primed per manufacturer's guide. Mice were anesthetized with isoflurane (5% induction; 2% maintenance). Their backs were shaved, wiped down with isopropyl alcohol and povidone iodine, and a small incision was made between the scapulae. Using a pair of forceps or hemostat, a small pocket was formed by spreading the subcutaneous connective tissues apart. The pump was inserted into the pocket with the flow moderator pointing away from the incision. The skin incision was then closed using 7 mm staples and the animals were allowed to recover in their home cages.
(§3) Data are represented as mean±s.e.m. Prism (Graphpad Software Inc., La Jolla, Calif.) was used for graphing and statistical analysis. For comparison of threshold values over time, a two-way ANOVA followed by Bonferroni's multiple comparison test was used with a significance level of p<0.05. Hotplate and MPE % data were analyzed by one-way ANOVA followed by Bonferroni's multiple comparison test.

C57Bl/6 mice [2] = experiment: CFA model, tactile allodynia (Von Frey test); assay type: in vivo
Source text: as §1
7 graded stimuli (von Frey filaments: 0.03, 0.07, 0.16, 0.4, 0.6, 1, 2 g; Stoelting, Wood Dale, Ill.) were used. Von Frey hairs were presented perpendicularly against the center plantar area (between toris) on a hindpaw. Sufficient force was applied to bend the filament slightly and held for 3 seconds. Per the Chaplan paper, a positive response can be either 1) a sharp withdrawal or 2) immediate flinching upon removal of the filament. See Chaplan et al for more details. Mice were acclimated to the wire mesh in the testing chamber for 30-60 minutes prior to testing.
(§4) Percent maximum possible effect (MPE %)=(T1−T0)/(Tc−T0)×100%. T0: threshold on day0 (post-CFA, pre-pump); T1: threshold on day1 post pump implantation; Tc: cut-off of the test (20 s for the Hargreaves test and 2 g for the Von Frey test)
(§5) Animals were anesthetized with isoflurane (4% induction and 2% maintenance) and 20 μL of 100% Complete Freund's Adjuvant (CFA; Sigma-Aldrich; Saint Louis, Mo.) was injected into the center plantar area on one hind paw using a 27 gauge needle attached to a 50 μL Hamilton syringe. Carrageenan model: Animals were anesthetized with isoflurane (4% induction and 2% maintenance) and 25 μL of 2% A-carrageenan (Sigma-Aldrich; Saint Louis, Mo.) dissolved in normal saline was injected into the center plantar area on hind paws using an insulin syringe (BD; Franklin Lakes, N.J.).
Alzet micro-osmotic mini pumps (Durect Corporation Model 1003D and 2001D) were filled and primed per manufacturer's guide. Mice were anesthetized with isoflurane (5% induction; 2% maintenance). Their backs were shaved, wiped down with isopropyl alcohol and povidone iodine, and a small incision was made between the scapulae. Using a pair of forceps or hemostat, a small pocket was formed by spreading the subcutaneous connective tissues apart. […]
Data are represented as mean±s.e.m. […] Hotplate and MPE % data were analyzed by one-way ANOVA followed by Bonferroni's multiple comparison test.

C57Bl/6 mice [3] = experiment: CFA model of inflammatory pain, thermal hyperalgesia (Hargreaves test); assay type: in vivo; conditions: for Thermal MPE %: CFA model, mice, mean±s.e.m. (n)
Experimental: as §1
This box consists of a chamber with a raised glass floor maintained at a constant temperature (27° C.). The thermal nociceptive stimulus originates from a projection bulb light beam below the glass surface. The light beam is aimed at the area between toris (center plantar). The “start” button will turn on the light and start the timer. Movements (such as a sudden withdrawal) of the stimulated paw will trigger the switch to turn off the light and stop the timer. […] If no movement occurs, the bulb will be turned off after 20 seconds (cutoff) to prevent tissue injury. The animals were allowed to habituate on the glass surface for 30-60 minutes before PWL measurement.
as §4, §5, §2, §3

C57Bl/6 mice [4] = conditions: mouse, in vivo

Chain of human Nav1.5 (Q14524 whole entry): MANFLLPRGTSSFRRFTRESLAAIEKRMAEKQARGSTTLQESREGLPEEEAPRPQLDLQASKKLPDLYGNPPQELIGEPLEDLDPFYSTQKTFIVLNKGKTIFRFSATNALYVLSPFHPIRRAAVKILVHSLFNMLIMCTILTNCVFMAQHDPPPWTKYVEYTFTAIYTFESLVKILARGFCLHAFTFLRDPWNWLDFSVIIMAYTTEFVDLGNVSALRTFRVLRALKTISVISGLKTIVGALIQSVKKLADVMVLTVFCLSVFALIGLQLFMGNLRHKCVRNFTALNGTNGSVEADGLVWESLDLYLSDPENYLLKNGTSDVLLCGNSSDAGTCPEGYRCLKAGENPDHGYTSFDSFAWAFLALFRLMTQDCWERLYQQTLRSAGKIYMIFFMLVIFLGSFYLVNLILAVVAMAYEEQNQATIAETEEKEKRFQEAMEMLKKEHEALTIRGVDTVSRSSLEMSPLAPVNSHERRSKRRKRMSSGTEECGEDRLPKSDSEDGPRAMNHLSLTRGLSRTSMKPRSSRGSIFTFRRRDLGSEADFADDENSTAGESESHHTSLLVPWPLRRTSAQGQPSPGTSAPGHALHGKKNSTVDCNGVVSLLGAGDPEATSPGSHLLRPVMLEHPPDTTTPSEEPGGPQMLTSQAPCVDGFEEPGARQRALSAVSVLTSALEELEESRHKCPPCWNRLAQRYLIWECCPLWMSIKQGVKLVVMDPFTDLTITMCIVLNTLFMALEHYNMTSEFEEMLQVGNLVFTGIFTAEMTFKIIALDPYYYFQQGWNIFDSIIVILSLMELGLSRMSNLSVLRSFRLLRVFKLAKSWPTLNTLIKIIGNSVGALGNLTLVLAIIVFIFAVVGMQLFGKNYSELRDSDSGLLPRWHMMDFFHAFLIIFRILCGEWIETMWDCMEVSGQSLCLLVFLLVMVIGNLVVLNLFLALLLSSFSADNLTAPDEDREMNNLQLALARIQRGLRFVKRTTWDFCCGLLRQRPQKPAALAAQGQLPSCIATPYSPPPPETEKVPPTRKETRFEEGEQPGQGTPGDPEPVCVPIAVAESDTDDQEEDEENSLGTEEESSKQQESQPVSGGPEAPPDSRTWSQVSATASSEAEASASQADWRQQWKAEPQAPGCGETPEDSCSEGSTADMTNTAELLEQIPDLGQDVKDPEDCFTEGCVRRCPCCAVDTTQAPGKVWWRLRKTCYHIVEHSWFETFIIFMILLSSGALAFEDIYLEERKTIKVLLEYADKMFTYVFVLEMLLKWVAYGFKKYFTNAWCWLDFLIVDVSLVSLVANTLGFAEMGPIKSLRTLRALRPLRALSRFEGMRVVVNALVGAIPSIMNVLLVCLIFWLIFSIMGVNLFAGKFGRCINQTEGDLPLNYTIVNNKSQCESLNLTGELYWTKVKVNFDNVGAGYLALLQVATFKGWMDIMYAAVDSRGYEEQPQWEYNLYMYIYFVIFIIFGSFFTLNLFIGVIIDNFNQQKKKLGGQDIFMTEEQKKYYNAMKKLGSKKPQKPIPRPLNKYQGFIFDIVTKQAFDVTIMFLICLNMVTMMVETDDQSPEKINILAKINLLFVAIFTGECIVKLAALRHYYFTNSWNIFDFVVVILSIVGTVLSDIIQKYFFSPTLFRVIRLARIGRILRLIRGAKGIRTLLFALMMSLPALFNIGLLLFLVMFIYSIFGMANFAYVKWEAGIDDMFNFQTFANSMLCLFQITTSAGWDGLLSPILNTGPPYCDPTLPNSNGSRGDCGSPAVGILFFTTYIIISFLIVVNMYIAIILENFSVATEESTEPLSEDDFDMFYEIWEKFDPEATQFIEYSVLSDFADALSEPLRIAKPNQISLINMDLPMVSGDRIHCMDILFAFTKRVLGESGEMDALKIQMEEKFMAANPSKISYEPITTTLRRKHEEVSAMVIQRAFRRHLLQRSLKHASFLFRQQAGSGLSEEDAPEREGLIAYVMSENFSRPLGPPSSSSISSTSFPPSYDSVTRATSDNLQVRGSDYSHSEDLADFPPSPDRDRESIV
T1 sequence (Q9UQD0 whole entry): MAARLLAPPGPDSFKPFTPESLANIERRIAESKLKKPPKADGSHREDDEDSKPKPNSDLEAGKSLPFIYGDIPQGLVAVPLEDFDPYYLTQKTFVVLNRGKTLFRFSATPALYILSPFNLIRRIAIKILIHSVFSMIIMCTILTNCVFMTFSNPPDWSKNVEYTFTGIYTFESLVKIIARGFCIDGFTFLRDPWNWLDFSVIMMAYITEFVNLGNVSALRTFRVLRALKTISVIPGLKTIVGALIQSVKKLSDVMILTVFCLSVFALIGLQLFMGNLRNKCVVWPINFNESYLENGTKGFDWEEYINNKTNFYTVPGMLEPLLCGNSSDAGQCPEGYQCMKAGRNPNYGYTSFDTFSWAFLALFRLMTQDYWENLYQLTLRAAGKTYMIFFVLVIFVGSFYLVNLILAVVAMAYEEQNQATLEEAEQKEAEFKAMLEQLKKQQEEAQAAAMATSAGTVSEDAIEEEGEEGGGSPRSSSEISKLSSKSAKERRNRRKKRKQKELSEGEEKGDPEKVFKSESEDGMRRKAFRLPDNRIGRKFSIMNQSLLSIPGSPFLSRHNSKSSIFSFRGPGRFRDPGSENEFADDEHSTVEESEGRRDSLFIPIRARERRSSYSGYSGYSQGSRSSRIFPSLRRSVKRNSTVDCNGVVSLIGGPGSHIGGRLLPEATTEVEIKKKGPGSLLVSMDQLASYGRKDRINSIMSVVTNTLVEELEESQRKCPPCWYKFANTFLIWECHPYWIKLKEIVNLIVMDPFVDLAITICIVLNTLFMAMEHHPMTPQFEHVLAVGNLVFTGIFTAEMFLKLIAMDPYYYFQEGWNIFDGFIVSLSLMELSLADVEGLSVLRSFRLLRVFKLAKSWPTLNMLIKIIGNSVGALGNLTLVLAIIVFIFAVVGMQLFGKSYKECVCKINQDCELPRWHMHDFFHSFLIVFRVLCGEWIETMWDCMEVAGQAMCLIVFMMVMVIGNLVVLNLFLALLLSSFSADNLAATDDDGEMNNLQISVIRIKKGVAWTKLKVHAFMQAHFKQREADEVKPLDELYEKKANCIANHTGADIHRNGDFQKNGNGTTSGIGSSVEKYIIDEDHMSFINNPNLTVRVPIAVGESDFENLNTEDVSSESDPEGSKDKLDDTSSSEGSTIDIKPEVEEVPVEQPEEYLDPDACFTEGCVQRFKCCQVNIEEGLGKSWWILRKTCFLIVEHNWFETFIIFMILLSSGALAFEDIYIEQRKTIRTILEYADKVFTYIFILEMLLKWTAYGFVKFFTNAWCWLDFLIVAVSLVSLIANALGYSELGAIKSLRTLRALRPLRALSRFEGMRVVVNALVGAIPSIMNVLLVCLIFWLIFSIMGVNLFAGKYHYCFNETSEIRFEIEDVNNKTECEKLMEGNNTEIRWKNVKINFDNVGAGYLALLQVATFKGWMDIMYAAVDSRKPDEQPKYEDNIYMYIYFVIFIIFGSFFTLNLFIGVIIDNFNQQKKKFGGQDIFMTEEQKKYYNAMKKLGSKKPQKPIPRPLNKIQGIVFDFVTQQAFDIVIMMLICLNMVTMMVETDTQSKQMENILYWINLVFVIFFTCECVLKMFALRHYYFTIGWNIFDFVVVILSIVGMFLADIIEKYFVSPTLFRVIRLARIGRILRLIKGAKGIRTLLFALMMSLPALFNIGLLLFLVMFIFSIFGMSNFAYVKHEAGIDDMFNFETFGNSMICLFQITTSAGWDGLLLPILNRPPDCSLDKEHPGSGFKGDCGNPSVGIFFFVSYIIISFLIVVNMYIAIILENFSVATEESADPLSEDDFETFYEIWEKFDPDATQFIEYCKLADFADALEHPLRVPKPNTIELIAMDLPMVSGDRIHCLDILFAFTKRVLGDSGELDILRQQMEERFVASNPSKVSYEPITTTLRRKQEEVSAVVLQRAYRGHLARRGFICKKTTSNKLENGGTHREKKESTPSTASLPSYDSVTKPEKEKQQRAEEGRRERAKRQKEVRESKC

GPYCQKWMWTCDSERKCCEGMVCRLWCKKKLW-COOH [NV1D12, reference compound]
IC50 (human Nav1.6; read-out: IC50 for Nav1.6, QPatch electrophysiology assay): ~62 nM | IC50 (human Nav1.5): > 1000 nM

YCQKWMWTCDSERKCCEGMVCRLWCKKKLW-COOH [wild type Protoxin-II]
efficacy in rodent models of acute and inflammatory pain (rodent): non-efficacious | inhibition of action potential firing in isolated nerves (isolated nerves): inability

GPSCQKWMQTCDAERKCCEGFVCRLWCKKKLW-OH (cysteine pairing not given here) [NV1D2773]
IC50 (human Nav1.5; human, pH 7.4): > 3000 nM

GPQCQKWMQTCDAERKCCEGFVCRLWCKKKLW-OH (cysteine pairing not given here) [NV1D2775]
selectivity for Nav1.7 compared to recombinant Protoxin-II (human Nav1.6): improved selectivity | hotplate thermal latency compared to the PBS control (C57Bl/6 mice [1]; 228 μg/day): modest yet significant increase | hotplate latencies at 50 and 55° C. (C57Bl/6 mice [1]; 1824 μg/day): near cut-off | efficacy in the hotplate test (C57Bl/6 mice [1]; mouse, in vivo, listed as NV1D2775-OH): strong, dose-dependent efficacy; also recorded: significant analgesia | CFA-induced tactile allodynia (C57Bl/6 mice [2]; 1824 μg/day): reversed | time at which effect reached the maximum, tactile test (C57Bl/6 mice [2]; mouse, in vivo): 8 h | time by which tactile threshold returned to control level post pump implantation (C57Bl/6 mice [2]; mouse, in vivo): ≤ 48 h | thermal latencies after peptide administration (C57Bl/6 mice [3]; 1824 μg/day, cut-off 20 s): close to the cut-off | Thermal MPE % (C57Bl/6 mice [3]; 228 μg/day/mouse by subcutaneous osmotic mini-pump): 35 ± 8 (8) % | Thermal MPE % (C57Bl/6 mice [3]; 1824 μg/day/mouse by subcutaneous osmotic mini-pump): 85 ± 6 % | efficacy in the CFA model (C57Bl/6 mice [3]; mouse, in vivo): strong efficacy | time at which anti-hyperalgesic effect was first seen, post-pump implantation (C57Bl/6 mice [3]; mouse, in vivo): 4 h | time at which effect reached the maximum, thermal test (C57Bl/6 mice [3]; mouse, in vivo): 8 h | time by which thermal latency returned to control level post pump implantation (C57Bl/6 mice [3]; mouse, in vivo): ≤ 48 h | analgesia, thermal withdrawal latency on day1 post-pump (C57Bl/6 mice [4]): significant analgesia | protection from carrageenan-induced thermal hyperalgesia (C57Bl/6 mice [4]): fully protected
